The results in this text go back to ChEMBL document CHEMBL1157109, “Differentiating and apoptotic dose-dependent effects in (-)-alpha-bisabolol-treated human endothelial cells” (2010).

Calls of active or inactive are those of the source. The rule behind the calls is not given here.

In assay [1] the test system is HUVEC. The experiment in a line: Cytotoxicity against HUVEC at 0.15 uM after 72 hrs by trypan blue dye exclusion test relative to control. Type of assay: functional, Homo sapiens.
For assay [2], the system named is HUVEC. Kind of assay: Cytotoxicity against HUVEC assessed as change in cell number at 25 uM after 72 hrs by trypan blue dye exclusion test. Type of assay: functional, cell-based. The settings on record: Homo sapiens.
Assay [3] concerns HUVEC. Kind of assay: Cytotoxicity against HUVEC at 5 uM after 6 hrs by Trypan blue dye exclusion test. The assay is classed as functional, Homo sapiens.
Assay [4] has as its system HUVEC. Kind of assay: Angiogenic activity against HUVEC assessed as organization of cells in a capillary like structure at 0.25 uM after 4 hrs. Type of assay: functional, cell-based. The settings on record: Homo sapiens.
Assay [5] has as its system HUVEC. Kind of assay: Induction of apoptosis in HUVEC assessed as effect on bax protein level after 1 hr by Western blot analysis. Type of assay: functional, cell-based. The settings on record: Homo sapiens. Background: A western blot detects proteins with antibodies after separation by electrophoresis.
The subject of assay [6] is HUVEC. The experiment in a line: Induction of apoptosis in HUVEC assessed as procaspase3 activation at 5 uM after 4 hrs by Western blot analysis. Type of assay: functional, cell-based. The settings on record: Homo sapiens.
The subject of assay [7] is HUVEC. Kind of assay: Induction of apoptosis in HUVEC assessed as cytochrome C release at 5 uM after 24 hrs by Western blot analysis. The assay is classed as functional, cell-based. The settings on record: Homo sapiens.
Assay [8] concerns HUVEC. Kind of assay: Cytotoxicity against HUVEC at 0.25 uM after 72 hrs by trypan blue dye exclusion test relative to control. The assay is classed as functional, Homo sapiens.
Assay [9] deals with HUVEC. Kind of assay: Induction of apoptosis in HUVEC assessed as procaspase3 activation at 5 uM after 24 hrs by Western blot analysis. Type of assay: functional, cell-based. The settings on record: Homo sapiens.
Assay [10] relates to HUVEC. The experiment in a line: Antiangiogenic activity in HUVEC assessed as decrease in cell migration at 0.25 uM after 4 hrs in the presence of FGF2 relative to control. The assay is classed as functional, cell-based. The settings on record: Homo sapiens.
For assay [11], the system named is HUVEC. Kind of assay: Induction of apoptosis in HUVEC assessed as cytochrome C release at 5 uM after 4 hrs by Western blot analysis. Type of assay: functional, cell-based. The settings on record: Homo sapiens.
Assay [12] concerns HUVEC. Kind of assay: Angiogenic activity against HUVEC assessed as organization of cells in a capillary like structure at 0.1 uM after 4 hrs. Type of assay: functional, cell-based. The settings on record: Homo sapiens.
Assay [13] has as its system HUVEC. Kind of assay: Antiangiogenic activity against HUVEC assessed as inhibition of capillary tube organization at 0.5 uM after 4 hrs. The settings on record: Homo sapiens. The assay is classed as functional, cell-based.
For assay [14], the system named is HUVEC. The experiment in a line: Induction of apoptosis in HUVEC assessed as procaspase3 activation at 0.25 uM after 4 hrs by Western blot analysis. Type of assay: functional, cell-based. The settings on record: Homo sapiens.
Assay [15] relates to HUVEC. Kind of assay: Cytotoxicity against HUVEC at 0.35 uM after 72 hrs by trypan blue dye exclusion test relative to control. Type of assay: functional, Homo sapiens.
For assay [16], the system named is HUVEC. Kind of assay: Induction of apoptosis in HUVEC assessed as down-regulation of Bcl2 protein level at 5 uM after 0.5 hr by Western blot analysis. The assay is classed as functional, cell-based. The settings on record: Homo sapiens.
Assay [17] deals with HUVEC. Kind of assay: Cytotoxicity against HUVEC at 0.5 uM after 72 hrs by trypan blue dye exclusion test relative to control. The assay is classed as functional, Homo sapiens.

As for `CC(C)=CCC[C@](C)(O)[C@@H]1CC=C(C)CC1` [LEVOMENOL], the Activity in assay [1] is recorded as 65%; in [3], >60%; in [8], 78%; in [15] it was 82%; in assay [17], 90%. Besides, the result in [2], in [5] and in assay [14] was inactive. Further, the outcome in assay [4], in assay [6], in assay [7], in assay [9], in assay [10] and in [11] was Active. In addition, the result in assay [12], in assay [13] and in assay [16] was Active.
